Drawing on patent US10881653B2, “Tricyclic compounds and their use in the treatment of cancer” (The United States of America, as represented by the …, priority 2015, dated 2021), this text covers IC50 for 11 compounds.

Structures can show the parent of a compound that is named as a salt. Where two headings read alike, the source gives them in different places. Where only a bound is given, the exact number is not on record here.

For assay [1], the target named is T1, recombinant thioredoxin reductase 1 (TrxR1) (Homo sapiens, UniProt Q16881).
T1 sequence (Q16881 1-649): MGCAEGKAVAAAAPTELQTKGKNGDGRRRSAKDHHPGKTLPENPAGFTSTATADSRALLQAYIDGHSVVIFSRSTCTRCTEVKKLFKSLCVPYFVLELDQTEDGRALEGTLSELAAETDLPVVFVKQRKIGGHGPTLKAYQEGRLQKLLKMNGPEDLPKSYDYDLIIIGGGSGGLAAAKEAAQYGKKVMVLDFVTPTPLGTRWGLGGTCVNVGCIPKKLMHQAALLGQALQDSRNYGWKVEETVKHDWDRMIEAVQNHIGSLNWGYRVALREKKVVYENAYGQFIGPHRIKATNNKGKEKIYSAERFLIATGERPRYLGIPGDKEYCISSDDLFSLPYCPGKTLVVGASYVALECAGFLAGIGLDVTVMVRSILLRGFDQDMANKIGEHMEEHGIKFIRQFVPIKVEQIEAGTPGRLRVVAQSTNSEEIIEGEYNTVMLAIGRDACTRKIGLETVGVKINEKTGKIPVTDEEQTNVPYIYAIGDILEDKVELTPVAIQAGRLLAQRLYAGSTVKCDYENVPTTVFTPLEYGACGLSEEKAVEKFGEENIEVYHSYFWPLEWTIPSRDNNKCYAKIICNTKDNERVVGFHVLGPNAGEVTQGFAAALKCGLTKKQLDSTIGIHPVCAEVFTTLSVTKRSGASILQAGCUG
As to the kind of experiment: Inhibition of recombinant TrxR1 (DTNB assay). Format: biochemical. The procedure, abridged: (§1)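 Human TrxR1 (15 nM) or GR (2 nM) preincubated 15 min with compound, 250 μM NADPH, 0.1 mg/ml BSA in 50 mM Tris pH 7.5, 2 mM EDTA, 1% DMSO. Reaction started with 2.5 mM DTNB (TrxR1, A412) or 1 mM GSSG (GR, A340). Percent activity relative to DMSO and no-enzyme blanks.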

In assay [2] the target is T2, gluthathione reductase (GR) (Homo sapiens, UniProt P00390).
T2 sequence (P00390 44-522): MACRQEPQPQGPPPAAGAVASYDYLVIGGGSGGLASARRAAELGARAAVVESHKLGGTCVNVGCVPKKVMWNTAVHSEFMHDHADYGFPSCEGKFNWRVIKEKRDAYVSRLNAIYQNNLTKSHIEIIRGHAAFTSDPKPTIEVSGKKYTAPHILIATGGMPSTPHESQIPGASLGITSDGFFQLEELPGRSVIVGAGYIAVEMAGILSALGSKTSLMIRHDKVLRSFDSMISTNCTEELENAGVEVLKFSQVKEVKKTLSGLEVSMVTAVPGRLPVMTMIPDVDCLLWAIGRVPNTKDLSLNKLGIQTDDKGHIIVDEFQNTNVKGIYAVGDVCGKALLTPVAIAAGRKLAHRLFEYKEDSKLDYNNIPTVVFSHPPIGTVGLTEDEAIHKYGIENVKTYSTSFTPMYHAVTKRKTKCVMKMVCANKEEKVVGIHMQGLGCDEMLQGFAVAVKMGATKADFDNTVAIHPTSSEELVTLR
As to the kind of experiment: Inhibition of recombinant GR (GSSG assay). The format is biochemical. The procedure, abridged:
as §1

Where [3] appears, read: Biological Example 4, assays of Biological Example 1, read-out: TrxR Inhibition.
Where [4] appears, read: Biological Example 4, assays of Biological Example 1.
[5] abbreviates: Biological Example 1, 15 nM TrxR1, 250 μM NADPH, 15 minutes incubation, read-out: TrxR inhibition.
Where [6] appears, read: Biological Example 1, 2 nM GR, 250 μM NADPH, 15 minutes incubation.

As to `O=C1C=C[C@H]2C3C(=O)N(c4ccccc4)C(=O)C3[C@@H]1N2Cc1cccc(F)c1` (some centres unmarked) [Example 28], the IC50 in assay [1] (setting [3]) amounted to 2710 nM; in assay [2] (setting [4]) it was 29.8 µM.
With `O=C1C=C[C@H]2[C@@H]3C(=O)N(c4ccccc4)C(=O)[C@@H]3[C@@H]1N2Cc1cccc(F)c1` (relative stereo) [Example 29, exo-11-(3-Fluorobenzyl)-4-phenyl-4,11-diazatricyclo[5.3.1.0^2,6]undec-9-ene-3,5,8-trione Trifluoroacetate], the IC50 is 1070 nM in assay [1] (setting [3]) and above 100 µM in assay [2] (setting [4]).
For `CCN1C(=O)[C@@H]2[C@H](C1=O)[C@H]1C(=O)C=C[C@@H]2N1Cc1cccc(C)c1` (relative stereo) [Example 49, exo-4-Ethyl-11-(3-methylbenzyl)-4,11-diazatricyclo[5.3.1.0^2,6]undec-9-ene-3,5,8-trione Trifluoroacetate], the IC50 in assay [1] (setting [3]) was 2530 nM; in assay [2] (setting [4]) it was above 100 µM.
For `CN1[C@@H]2C(=O)C=C[C@H]1[C@@H]1C(=O)N(c3ccccc3)C(=O)[C@@H]12` (relative stereo) [Example 3, exo-11-Methyl-4-phenyl-4,11-diazatricyclo[5.3.1.0^2,6]undec-9-ene-3,5,8-trione Trifluoroacetate], the IC50 amounted to 3090 nM in assay [1] (setting [5]), 1120 nM in assay [1] (setting [3]), 44 µM in assay [2] (setting [6]) and 23 µM in assay [2] (setting [4]).
As to `Cc1cc(C)cc(CN2C3C=CC(=O)C2C2C(=O)N(c4ccccc4)C(=O)C23)c1` (stereo not drawn) [Example 33, exo-11-(3,5-Dimethylbenzyl)-4-phenyl-4,11-diazatricyclo[5.3.1.0^2,6]undec-9-ene-3,5,8-trione Trifluoroacetate], the IC50 in assay [1] (setting [3]) was 1330 nM; in assay [2] (setting [4]) it was above 100 µM.
For `CCN1C(=O)C2C(C1=O)[C@@H]1C=CC(=O)[C@H]2N1Cc1ccccc1` (relative stereo) [Example 46, endo-11-Benzyl-4-ethyl-4,11-diazatricyclo[5.3.1.0^2,6]undec-9-ene-3,5,8-trione Trifluoroacetate], in that order: 5100 nM and above 100 µM.
As to `O=C1C=CC2C3C(=O)N(c4ccccc4)C(=O)C3C1N2Cc1ccccc1Br` (centres unmarked) [Example 20, 11-(2-Bromobenzyl)-4-phenyl-4,11-diazatricyclo[5.3.1.0^2,6]undec-9-ene-3,5,8-trione Trifluoroacetate], the IC50 in assay [1] (setting [5]) was 3700 nM; in assay [1] (setting [3]), 940 nM; in assay [2] (setting [6]), above 100 µM; in assay [2] (setting [4]) it was above 100 µM.
On to `Cc1cccc(CN2[C@@H]3C(=O)C=C[C@H]2[C@@H]2C(=O)N(c4ccccc4O)C(=O)[C@@H]23)c1` (relative stereo) [Example 56, exo-4-(2-Hydroxyphenyl)-11-(3-methylbenzyl)-4,11-diazatricyclo[5.3.1.0^2,6]-undec-9-ene-3,5,8-trione Trifluoroacetate], for which the results for the IC50 in assay [1] (setting [3]) and in assay [2] (setting [4]) were 1440 nM and above 100 µM, respectively.
The matching figures for `Cc1ccc(CN2[C@@H]3C(=O)C=C[C@H]2[C@@H]2C(=O)N(c4ccccc4)C(=O)[C@@H]23)cc1` (relative stereo) [Example 4, exo-11-Methylbenzyl-4-phenyl-4,11-diazatricyclo[5.3.1.0^2,6]undec-9-ene-3,5,8-trione Trifluoroacetate]: 1180 nM and 55.6 µM.
The matching figures for `O=C1C=C[C@H]2[C@@H]3C(=O)N(c4ccccc4)C(=O)[C@@H]3[C@@H]1N2CC1CC1` (relative stereo) [Example 25, exo-11-(Cyclopropylmethyl)-4-phenyl-4,11-diazatricyclo[5.3.1.0^2,6]undec-9-ene-3,5,8-trione Trifluoroacetate]: 7060 nM and above 100 µM.
Turning to `O=C1C=C[C@H]2C3C(=O)N(c4ccccc4)C(=O)C3[C@@H]1N2Cc1cc(F)ccc1F` (mixture of isomers) [Example 26, endo 11-(2,5-Difluorobenzyl)-4-phenyl-4,11-diazatricyclo[5.3.1.0^2,6]undec-9-ene-3,5,8-trione Trifluoroacetate], the IC50 in assay [1] (setting [3]) came out at 2500 nM; in assay [2] (setting [4]), 30.1 µM.
